Reference: patent EP0887339A1, “Azulene derivatives and medicaments containing them” (BOEHRINGER MANNHEIM GMBH, priority 1997, dated 1998)

The molecules below were run against TNF-α (assay: Inhibition of TNFα in culture supernatant of LPS-stimulated peripheral human leukocytes, TNFα-specific enzyme immunoassay). Settings: Periphere humane Leukozyten, LPS über 22 Std., Kulturüberstand.
Type: cell-based
From the text: […] humane Leukozyten werden mit LPS über 22 Std. inkubiert. Der Kulturüberstand wird mit einem TNFα spezifischen Enzym-Immuno-Assay untersucht. Durch Vergleich der für die Messproben erhaltenen TNFα-Konzentrationen mit den ungehemmten Proben wird die prozentuale Hemmung fiir die einzelne Probe berechnet. Aus der […]. Der IC50-Wert läßt sich wie folgt ermitteln: v = v0 /(1 + [I] / IC50 ) [formula] • v = […]0 = […] ohne Inhibitor • [I] = […] IC50-Werte, der in den Beispielen beschriebenen Substanzen gegen TNF-α finden sich in der folgenden Tabelle:

Compound | IC50 [µM]
CCOC(=O)c1c2ccc(CC(=O)O)ccc-2c(C(=O)OCC)c1NC(C)=O [Beispiel 4, 2-Acetylamino-6-carboxymethyl-azulen-1,3-dicarbonsäurediethylester] | 4.1
CC(=O)N(C(C)=O)c1c(C(=O)OC(C)(C)C)c2ccc(C(C(=O)OC(C)(C)C)C(=O)OC(C)(C)C)ccc-2c1C(=O)OC(C)(C)C [Beispiel 11, 6-(Bis-tert-butoxycarbonyl-methyl)-2-diacetylamino-azulene-1,3-dicarbonsäure-di-tert-butylester] | 4.2
CCOC(=O)c1c2ccc(C(C(=O)NC(N)=O)C(=O)OCC)ccc-2c(C(=O)OCC)c1N (centres unmarked) [Beispiel 6, 2-Amino-6-(1-ethoxycarbonyl-2-oxo-2-ureido-ethyl)-azulen-1,3-dicarbonsäurediethylester] | 15
CCOC(=O)c1c2ccc(CC(=O)NO)ccc-2c(C(=O)OCC)c1NC(C)=O [Beispiel 5, 2-Acetylamino-6-hydroxycarbamoylmethyl-azulen-1,3-dicarbonsäurediethylester] | 0.02
CCOC(=O)c1c2ccc(CC(=O)O)ccc-2c(C(=O)O)c1N [Beispiel 2, 2-Amino-6-carboxylmethyl-azulen-1,3-dicarbonsäuremonoethylester] | 10.5
CC(C)(C)OC(=O)c1c2cccccc-2c(C(=O)OC(C)(C)C)c1N [Beispiel 7, 2-Amino-azulen-1,3-dicarbonsäure-di-tert-butylester] | 2.8
CCOC(=O)c1c2ccc(CC(=O)NO)ccc-2c(C(=O)OCC)c1N [Beispiel 3, 2-Amino-6-hydroxycarbamoylmethyl-azulen-1,3-dicarbonsäurediethylester] | 0.001
CCOC(=O)c1c2cccccc-2c(C(=O)OC(C)(C)C)c1N [Beispiel 8, 2-Amino-azulen-1,3-dicarbonsäure-tert-butyl-ethylester] | 8
CC(=O)N(C(C)=O)c1c(C(=O)OC(C)(C)C)c2ccc(Br)ccc-2c1C(=O)OC(C)(C)C [Beispiel 10, 2-Diacetylamino-6-bromo-azulen-1,3-dicarbonsäure-di-tert-butylester] | 0.5
CCOC(=O)c1c2ccc(CC(=O)O)ccc-2c(C(=O)OCC)c1N [Beispiel 1, 2-Amino-6-carboxylmethyl-azulen-1,3-dicarbonsäurediethylester] | 0.16
CC(C)(C)OC(=O)c1c2ccc(Br)ccc-2c(C(=O)OC(C)(C)C)c1N [Beispiel 9, 2-Amino-6-bromo-azulen-1,3-dicarbonsäure-di-tert-butylester] | 2.3
